The test system of one experiment is A549 cells. The experiment can be described thus: Proliferation Assay (A549 cell viability, Cell Titer Fluor). Format: cell-based. Particulars: Homo sapiens, 72 hours. A digest of the protocol:
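Compound exposure lasted 72 h (final DMSO 0.5% v/v) on A549 cells plated at 1000 cells/well one day earlier. Cell Titer Fluor added, 30 min at 37 °C, fluorescence read; EC50 derived by four-parameter logistic curve fitting.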

The target of experiment [1] is T1, purified recombinant human GAC (GLS1) (Homo sapiens, UniProt O94925).
T1 sequence (O94925 55-598 isoform O94925-3 limits assumed): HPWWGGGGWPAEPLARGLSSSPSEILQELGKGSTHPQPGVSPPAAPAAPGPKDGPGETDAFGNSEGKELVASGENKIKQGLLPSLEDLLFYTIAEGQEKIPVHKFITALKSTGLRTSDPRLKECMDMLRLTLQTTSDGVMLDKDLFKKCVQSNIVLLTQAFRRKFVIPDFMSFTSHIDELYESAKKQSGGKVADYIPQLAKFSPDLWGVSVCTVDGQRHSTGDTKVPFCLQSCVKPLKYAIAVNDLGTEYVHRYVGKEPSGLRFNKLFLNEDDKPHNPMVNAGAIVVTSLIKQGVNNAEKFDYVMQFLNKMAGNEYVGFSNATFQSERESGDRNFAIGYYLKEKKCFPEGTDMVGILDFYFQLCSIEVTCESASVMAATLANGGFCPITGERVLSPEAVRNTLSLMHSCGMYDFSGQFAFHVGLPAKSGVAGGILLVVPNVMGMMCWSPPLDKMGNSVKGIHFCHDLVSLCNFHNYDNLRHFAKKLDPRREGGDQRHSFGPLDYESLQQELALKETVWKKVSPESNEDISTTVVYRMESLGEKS
The experiment can be described thus: GLS1 Enzymatic Activity Assay (dual-coupled enzymatic assay). Format: biochemical. Summed up:
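GAC activity measured by coupling glutamate to glutamate oxidase and HRP, generating resorufin from Amplex UltraRed. Enzyme (2 nM) preincubated with 50 mM potassium phosphate 10 min at room temperature, then inhibitor 10 min; 1 mM glutamine substrate, 1% DMSO. Fluorescence 530/590 nm, kinetic or 20-min endpoint; IC50 from four-parameter logistic fit.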

By EC50 is commonly meant the concentration needed to bring the measured effect to its halfway point. Read a low EC50 as an effect from little substance. Usually IC50 stands for the point on the concentration scale where inhibition reaches its midpoint.

Each structure is given as a SMILES string.

As for `CC(=O)Nc1cccc(-c2c(C3CC3)[nH]c3nnc(CCCCn4cc(C(=O)NCc5ccccn5)nn4)cc23)c1` [Example 153], in the experiment on A549 cells, the EC50 was in the range of 500 to 5000 nM. In addition, in experiment [1], the IC50 is less than 100 nM.
The molecule `CC(=O)Nc1cccc(-c2c(C3CC3)[nH]c3nnc(CCCCn4cc(C(=O)NCc5ccc(C)nc5)nn4)cc23)c1` [Example 154, 1-{4-[6-cyclopropyl-5-(3-acetamidophenyl)-7H-pyrrolo[2,3-c]pyridazin-3-yl]butyl}-N-[(6-methylpyridin-3-yl)methyl]-1H-1,2,3-triazole-4-carboxamide] showed an EC50 with A549 cells of 500 to 5000 nM. Also, the IC50 in experiment [1] is less than 100 nM.
The matching figures for `O=C(NCc1cc(OC(F)(F)F)ccc1F)c1cn(CCCCc2cc3cc(C4CCNCC4)[nH]c3nn2)nn1` [Example 155, N-{[2-fluoro-5-(trifluoromethoxy)phenyl]methyl)-1-{4-[6-(piperidin-4-yl)-7H-pyrrolo[2,3-c]pyridazin-3-yl]butyl)-1H-1,2,3-triazole-4-carboxamide]: 500 to 5000 nM and 100 to 500 nM.
For `CC(=O)N1CCC(c2cc3cc(CCCCn4cc(C(=O)NCc5cc(OC(F)(F)F)ccc5F)nn4)nnc3[nH]2)CC1` [Example 156, 1-{4-[6-(1-acetylpiperidin-4-yl)-7H-pyrrolo[2,3-c]pyridazin-3-yl]butyl}-N-{[2-fluoro-5-(trifluoromethoxy)phenyl]methyl}-1H-1,2,3-triazole-4-carboxamide], the EC50 in the experiment with A549 cells fell in the range of 100 to 500 nM. Also, in experiment [1], the IC50 is less than 100 nM.
For `O=C(NCc1cc(OC(F)(F)F)ccc1F)c1cn(CCCCc2cc3cc(C4CCN(C(=O)CC(F)(F)F)CC4)[nH]c3nn2)nn1` [Example 157, N-{[2-fluoro-5-(trifluoromethoxy)phenyl]methyl)-1-(4-{6-[1-(3,3,3-trifluoropropanoyl)piperidin-4-yl]-7H-pyrrolo[2,3-c]pyridazin-3-yl}butyl)-1H-1,2,3-triazole-4-carboxamide], in the experiment on A549 cells, the EC50 was in the range of 100 to 500 nM. For the same molecule, in experiment [1], the IC50 is less than 100 nM.
`CNC(=O)c1cccc(-c2c(C3CC3)[nH]c3nnc(CCCCn4cc(C(=O)NCc5ccc(C)nc5)nn4)cc23)c1` [Example 158, 1-(4-{6-cyclopropyl-5-[3-(methylcarbamoyl)phenyl]-7H-pyrrolo[2,3-c]pyridazin-3-yl}butyl)-N-[(6-methylpyridin-3-yl)methyl]-1H-1,2,3-triazole-4-carboxamide] gave an EC50 with A549 cells of 500 to 5000 nM. Moreover, the IC50 in experiment [1] was less than 100 nM.
The matching figures for `Cc1ccc(CNC(=O)c2cn(CCCCc3cc4c(-c5cccc(CNS(C)(=O)=O)c5)c(C5CC5)[nH]c4nn3)nn2)cn1` [Example 159, 1-(4-{6-cyclopropyl-5-[3-(methanesulfonamidomethyl)phenyl]-7H-pyrrolo[2,3-c]pyridazin-3-yl}butyl)-N-[(6-methylpyridin-3-yl)methyl]-1H-1,2,3-triazole-4-carboxamide]: 500 to 5000 nM and less than 100 nM.
`Cc1ccc(CNC(=O)c2cn(CCCCc3cc4c(-c5cccc(C(C)(C)O)c5)c(C5CC5)[nH]c4nn3)nn2)cn1` [Example 160, 1-(4-{6-cyclopropyl-5-[3-(2-hydroxypropan-2-yl)phenyl]-7H-pyrrolo[2,3-c]pyridazin-3-yl}butyl)-N-[(6-mcthylpyridin-3-yl)methyl]-1H-1,2,3-triazole-4-carboxamide] registered an EC50 in the experiment with A549 cells of 100 to 500 nM. Also, the IC50 in experiment [1] was less than 100 nM.
For `CC(C)(O)c1ccc(CNC(=O)c2cn(CCCCc3cc4c(-c5ccc(F)cc5F)c(C5CC5)[nH]c4nn3)nn2)cn1` [Example 161, 1-{4-[6-cyclopropyl-5-(2,4-difluorophenyl)-7H-pyrrolo[2,3-c]pyridazin-3-yl]butyl}-N-{[6-(2-hydroxypropan-2-yl)pyridin-3-yl]methyl}-1H-1,2,3-triazole-4-carboxamide], in that order: 100 to 500 nM and less than 100 nM.
The molecule `CC(C)(O)c1ccc(CNC(=O)c2cn(CCCCc3cc4c(-c5ccc(C(F)(F)F)cc5)c(C5CC5)[nH]c4nn3)nn2)cn1` [Example 162, 1-(4-{6-cyclopropyl-5-[4-(trifluoromethyl)phenyl]-7H-pyrrolo[2,3-c]pyridazin-3-yl}butyl)-N-{[6-(2-hydroxypropan-2-yl)pyridin-3-yl]methyl}-1H-1,2,3-triazole-4-carboxamide] returned an EC50 in the experiment with A549 cells of 100 to 500 nM. For the same molecule, the IC50 in experiment [1] is less than 100 nM.
The molecule `Cc1ccc(CNC(=O)c2cn(CCCCc3cc4c(-c5ccc(C(F)(F)F)cc5)c(C5CC5)[nH]c4nn3)nn2)cn1` [Example 163, 1-(4-{6-cyclopropyl-5-[4-(trifluoromethyl)phenyl]-7H-pyrrolo[2,3-c]pyridazin-3-yl}butyl)-N-[(6-methylpyridin-3-yl)methyl]-1H-1,2,3-triazole-4-carboxamide] yielded an EC50 with A549 cells of 100 to 500 nM. The IC50 in experiment [1] was less than 100 nM.
The matching figures for `CC(C)(O)c1ccc(CNC(=O)c2cn(CCCCc3cc4c(-c5ccc(OC(F)(F)F)cc5)c(C5CC5)[nH]c4nn3)nn2)cn1` [Example 164, 1-(4-{6-cyclopropyl-5-[4-(trifluoromethoxy)phenyl]-7H-pyrrolo[2,3-c]pyridazin-3-yl}butyl)-N-{[6-(2-hydroxypropan-2-yl)pyridin-3-yl]methyl}-1H-1,2,3-triazole-4-carboxamide]: 100 to 500 nM and less than 100 nM.
The matching figures for `Cc1ccc(CNC(=O)c2cn(CCCCc3cc4c(-c5ccc(OC(F)(F)F)cc5)c(C5CC5)[nH]c4nn3)nn2)cn1` [Example 165, 1-(4-{6-cyclopropyl-5-[4-(trifluoromethoxy)phenyl]-7H-pyrrolo[2,3-c]pyridazin-3-yl}butyl)-N-[(6-methylpyridin-3-yl)methyl]-1H-1,2,3-triazole-4-carboxamide]: 100 to 500 nM and less than 100 nM.
Molecule `CC(C)(O)c1ccc(CNC(=O)c2cn(CCCCc3cc4c(-c5cccc(C(F)(F)F)c5)c(C5CC5)[nH]c4nn3)nn2)cn1` [Example 166, 1-(4-{6-cyclopropyl-5-[3-(trifluoromethyl)phenyl]-7H-pyrrolo[2,3-c]pyridazin-3-yl}butyl)-N-{[6-(2-hydroxypropan-2-yl)pyridin-3-yl]methyl}-1H-1,2,3-triazole-4-carboxamide] registered an EC50 in the experiment on A549 cells of 100 to 500 nM. The IC50 in experiment [1] was less than 100 nM.
For the molecule `Cc1ccc(CNC(=O)c2cn(CCCCc3cc4c(-c5cccc(C(F)(F)F)c5)c(C5CC5)[nH]c4nn3)nn2)cn1` [Example 167, 1-(4-{6-cyclopropyl-5-[3-(trifluoromethyl)phenyl]-7H-pyrrolo[2,3-c]pyridazin-3-yl}butyl)-N-[(6-methylpyridin-3-yl)methyl]-1H-1,2,3-triazole-4-carboxamide], the EC50 in the experiment with A549 cells is 100 to 500 nM. For the same molecule, the IC50 in experiment [1] was less than 100 nM.
The matching figures for `COc1ncc(-c2c(C3CC3)[nH]c3nnc(CCCCn4cc(C(=O)NCc5ccc(C)nc5)nn4)cc23)c(OC)n1` [Example 168, 1-{4-[6-cyclopropyl-5-(2,4-dimethoxypyrimidin-5-yl)-7H-pyrrolo[2,3-c]pyridazin-3-yl]butyl}-N-[(6-methylpyridin-3-yl)methyl]-1H-1,2,3-triazole-4-carboxamide]: 500 to 5000 nM and less than 100 nM.
For `CC(C)(O)c1ccc(CNC(=O)c2cn(CCCCc3cc4c(-c5cccc(OC(F)(F)F)c5)c(C5CC5)[nH]c4nn3)nn2)cn1` [Example 169, 1-(4-{6-cyclopropyl-5-[3-(trifluoromethoxy)phenyl]-7H-pyrrolo[2,3-c]pyridazin-3-yl}butyl)-N-{[6-(2-hydroxypropan-2-yl)pyridin-3-yl]methyl}-1H-1,2,3-triazole-4-carboxamide], in that order: 100 to 500 nM and less than 100 nM.
For `Cc1ccc(CNC(=O)c2cn(CCCCc3cc4c(-c5cccc(OC(F)(F)F)c5)c(C5CC5)[nH]c4nn3)nn2)cn1` [Example 170, 1-(4-{6-cyclopropyl-5-[3-(trifluoromethoxy)phenyl]-7H-pyrrolo[2,3-c]pyridazin-3-yl}butyl)-N-[(6-methylpyridin-3-yl)methyl]-1H-1,2,3-triazole-4-carboxamide], in that order: 100 to 500 nM and less than 100 nM.
`CC(C)(O)c1ccc(CNC(=O)c2cn(CCCCc3cc4c(-c5ccoc5)c(C5CC5)[nH]c4nn3)nn2)cn1` [Example 171, 1-{4-[6-cyclopropyl-5-(furan-3-yl)-7H-pyrrolo[2,3-c]pyridazin-3-yl]butyl}-N-{[6-(2-hydroxypropan-2-yl)pyridin-3-yl]methyl}-1H-1,2,3-triazole-4-carboxamide] had an EC50 in the experiment with A549 cells of less than 100 nM. Moreover, in experiment [1], the IC50 was less than 100 nM.
`Cc1ccc(CNC(=O)c2cn(CCCCc3cc4c(-c5ccoc5)c(C5CC5)[nH]c4nn3)nn2)cn1` [Example 172, 1-{4-[6-cyclopropyl-5-(furan-3-yl)-7H-pyrrolo[2,3-c]pyridazin-3-yl]butyl}-N-[(6-methylpyridin-3-yl)methyl]-1H-1,2,3-triazole-4-carboxamide] gave an EC50 with A549 cells of less than 100 nM. Besides, the IC50 in experiment [1] is less than 100 nM.

The values above are taken from US20160002248A1, “GLS1 INHIBITORS FOR TREATING DISEASE” (Board of Regents, The University of Texas System, priority 2014, published 2016).
